Laboratory results published in patent US11040043B2, “Transdermal pharmaceutical compositions comprising active agents” (priority 2009, dated 2021).
Where two headings read alike, the source gives them in different places. Values belong to the compound of their own block, whether it stands above or below them.

Columns and labels:
[1] = Solubility of ethyl oleate as a function of ethanol concentration; type: physicochemical; conditions: for Amount of Ethyl Oleate solubilised in g/100 g: room temperature, 0.24% estradiol, 5% propylene glycol, 2% oleic acid, Qsf water
Description: In particular, it appears that the more ester is present in the composition, the better the storage depot effect is. […] An upper limit is imposed, however, by the solubility of the fatty acid ester in the composition.

clinical = experiment: clinical; parameters: species or system human; conditions: in vivo
Description: A multiple-dose, open-label, dose-escalation study was designed in which 12 healthy male subjects were scheduled to receive 1 of 2 treatments once daily for 3 days with an 11-day washout period between doses.
The objective of this Phase 1 study was to assess the safety and pharmacokinetic (PK) profile of multiple dose administration of 0.25 g and 1.00 g of a 0.07% transdermal estradiol gel in healthy male volunteers. The transdermal gel used had the following formulation: […]
Twelve (12) healthy subjects were enrolled and participated in two open-label treatment periods. Subjects who successfully completed the screening process checked into the research center on Day 1, approximately 1 to 2 hours prior to the first blood draw of each treatment period. For Treatment Period A, 0.25 g of the 0.07% gel was to be administered once daily for three days. During Treatment Period B, 1.0 g of the 0.07% gel was to be administered once daily for three days. Dosing days were to be separated by a washout period of at least 11 days.
Diagnosis and Main Criteria for Inclusion: Healthy adult male volunteers, 18-45 years of age, with body mass index (BMI) between 18 and 30 kg/m2, inclusive, and minimum weight of 50 kg (110 pounds).

Amount of Ethyl Oleate solubilised in g/100 g ([1]; EtOH (96% v/v) 64%): 0.65 g/100 g
Amount of Ethyl Oleate solubilised in g/100 g ([1]; EtOH (96% v/v) 66%): 0.91 g/100 g
Amount of Ethyl Oleate solubilised in g/100 g ([1]; EtOH (96% v/v) 68%): 1.28 g/100 g
Amount of Ethyl Oleate solubilised in g/100 g ([1]; EtOH (96% v/v) 70%): 1.60 g/100 g
Amount of Ethyl Oleate solubilised in g/100 g ([1]; EtOH (96% v/v) 72%): 2.19 g/100 g
Amount of Ethyl Oleate solubilised in g/100 g ([1]; EtOH (96% v/v) 73%): 2.40 g/100 g
maximum ethyl oleate that can be dissolved ([1]; formulation comprising 72% ethanol): ≤ 2.2%
SMILES: CCCCCCCC/C=C\CCCCCCCC(=O)OCC [Ethyl Oleate, ethyl oleate]

AUC0-24 (clinical; male, human): 0.7522 ng·h/mL
AUC0-120 (clinical; male, human): 2.933 ng·h/mL
AUC24-48 (clinical; male, human): 0.661 ng·h/mL
AUC48-72 (clinical; male, human): 0.6581 ng·h/mL
AUC(0-t) (clinical; male, human): 4.436 ng·h/mL
Cmax-overall (clinical; male, human): 0.0646 ng/mL
increase in overall systemic exposure based on AUC0-120 (clinical; male, human): 1.26 fold
increase in peak systemic exposure based on Cmax0-120 (clinical; male, human): 1.95 fold
increase of estradiol concentrations above baseline (clinical; male, human): 2- to 3 fold
ratio (0.25 g: 1.00 g) for estradiol AUC0-120 (clinical; male, human): 80.01%
ratio (0.25 g: 1.00 g) for estradiol Cmax0-120 (clinical; male, human): 47.89%
Tmax (clinical; male, human, 0.25 g of 0.07% estradiol gel (Example 10) once daily for 3 days, healthy males, Mean, N 12, read-out: Tmax-overall): 54.8 h
Tmax (clinical; male, human, 0.25 g, first dosing interval, read-out: Estradiol Tmax after administration of the gel): ~13 h
Tmax (clinical; male, human, 0.25 g, third dosing interval, read-out: Estradiol Tmax after administration of the gel): ~3 h
Tmax (clinical; male, human, 1.00 g of 0.07% estradiol gel (Example 10) once daily for 3 days, healthy males, Mean, n 11, read-out: Tmax-overall): 29.8 h
AUC(0-t) (clinical; male, human, AUC0-24 (hr * pg/mL)): 0.477 ng·h/mL
AUC(0-t) (clinical; male, human, AUC0-120 (hr * pg/mL)): 2.33 ng·h/mL
AUC(0-t) (clinical; male, human, AUC0-t (hr * pg/mL)): 3.78 ng·h/mL
AUC (clinical; male, human, AUC24-48 (hr * pg/mL)): 0.503 ng·h/mL
AUC (clinical; male, human, AUC48-72 (hr * pg/mL)): 0.477 ng·h/mL
Cmax (clinical; male, human, Cmax-overall (pg/mL)): 0.0331 ng/mL
SMILES: C[C@]12CC[C@@H]3c4ccc(O)cc4CC[C@H]3[C@@H]1CC[C@@H]2O [Estradiol, estradiol]
dose proportionality of exposure (clinical): less than proportional increase in exposure
